The subject of series [1] is vaccinia virus (VV). The conditions noted are these: in vitro, read-out: 50% effective concentration [EC50], inhibition of virus replication; cited from earlier work.
The test system of series [2] is cowpox virus (CV). The settings on record: in vitro, read-out: 50% effective concentration [EC50], inhibition of virus replication; cited from earlier work.
The subject of series [3] is ectromelia virus (ECTV). The conditions noted are these: read-out: 50% effective concentration [EC50], inhibition of virus replication; cited from earlier work.
The test system of series [4] is monkeypox. The conditions noted are these: in vitro, read-out: 50% effective concentration [EC50], inhibition of virus replication; cited from earlier work.
Series [5] concerns camelpox. The conditions noted are these: read-out: 50% effective concentration [EC50], inhibition of virus replication; cited from earlier work.
Series [6] concerns variola viruses. The settings on record: in vitro, read-out: 50% effective concentration [EC50], inhibition of virus replication; cited from earlier work.
Series [7] deals with VV. The conditions noted are these: lethal infection with VV; treatments delayed up to 72 h post-viral inoculation; cited from earlier work.
For series [8], the system named is CV. The conditions noted are these: lethal infection with CV; treatments delayed up to 72 h post-viral inoculation; cited from earlier work.
For series [9], the system named is VV. The conditions noted are these: orally twice a day at 15 or 50 mg/kg of body weight for 5 days; cited from earlier work.
Series [10] in a line: physchem. The conditions noted are these: aqueous buffer.
Series [11] relates to ECTV. The conditions noted are these: mouse, in vivo; cited from earlier work.

Values after ≈ are worked out from the molar mass of the structure shown. Bounds are passed on as bounds.

Consider `O=C(NN1C(=O)[C@@H]2[C@@H]3C=C[C@@H]([C@H]4C[C@@H]34)[C@@H]2C1=O)c1ccc(C(F)(F)F)cc1` [ST-246, 4-trifluoromethyl-N-(3,3a,4,4a,5,5a,6,6a-octahydro-1,3-dioxo-4,6-ethenocycloprop[f]isoindol-2-(1H)-yl)-benzamide], for which the EC50 in series [1], in series [2], in [3], in series [4], in series [5] and in series [6] was no more than 70 nM in each case. For the same compound, the “preventing or reducing mortality” value in [7], in series [8] and in series [11] was “highly effective in preventing or reducing mortality” each time. Further, the tail lesions entry in series [9] is listed as “significantly reduced”. The solubility (as a rule, the dissolved amount per volume that the medium holds) in series [10] is roughly 2 µg/mL (≈ 5.31 µM). In series [11], the “toxicity in animal models” value is listed as “nontoxic”.
